What was measured:
[1] = molecular target: PRMT5/MEP50 protein complex (Homo sapiens (Human), UniProt O14744); test: PRMT5 biochemical assay (3H-SAM methylation of H4(1-21) peptide, filter plate scintillation); details: 10 nM PRMT5/MEP50 complex, 200 nM H4(1-21) peptide, 1 uM SAM, 25 minute incubation at room temperature
In short: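 Human PRMT5/MEP50 complex (10 nM) methylating H4(1-21) peptide (200 nM) with 3H/unlabelled SAM (1 uM final) in pH 8.5 Tris buffer, 25 min at room temperature. Stopped with TCA, 3H-peptide captured on filter plates and scintillation-counted. IC50 from 4-parameter fit.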

[2] = tested on: A549 lung adenocarcinoma cells; test: A549 proliferation assay (Cell Titer Glo); format: cell-based; details: Homo sapiens, A549, 168 h, 7 days with compound, cell viability by Cell Titer Glo (ATP)
In short: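 A549 cells plated overnight, then treated with nine-point 3.3-fold dilutions (final top 10 μM, 0.2% DMSO) for 7 days at 37 °C, with media and compound refreshed on day 4. Viability measured as ATP by Cell Titer Glo luminescence; IC50 from 4-parameter fit normalized to DMSO control.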

Sequence of PRMT5/MEP50 protein complex (O14744 other isoform, or with tags, fused parts or gaps): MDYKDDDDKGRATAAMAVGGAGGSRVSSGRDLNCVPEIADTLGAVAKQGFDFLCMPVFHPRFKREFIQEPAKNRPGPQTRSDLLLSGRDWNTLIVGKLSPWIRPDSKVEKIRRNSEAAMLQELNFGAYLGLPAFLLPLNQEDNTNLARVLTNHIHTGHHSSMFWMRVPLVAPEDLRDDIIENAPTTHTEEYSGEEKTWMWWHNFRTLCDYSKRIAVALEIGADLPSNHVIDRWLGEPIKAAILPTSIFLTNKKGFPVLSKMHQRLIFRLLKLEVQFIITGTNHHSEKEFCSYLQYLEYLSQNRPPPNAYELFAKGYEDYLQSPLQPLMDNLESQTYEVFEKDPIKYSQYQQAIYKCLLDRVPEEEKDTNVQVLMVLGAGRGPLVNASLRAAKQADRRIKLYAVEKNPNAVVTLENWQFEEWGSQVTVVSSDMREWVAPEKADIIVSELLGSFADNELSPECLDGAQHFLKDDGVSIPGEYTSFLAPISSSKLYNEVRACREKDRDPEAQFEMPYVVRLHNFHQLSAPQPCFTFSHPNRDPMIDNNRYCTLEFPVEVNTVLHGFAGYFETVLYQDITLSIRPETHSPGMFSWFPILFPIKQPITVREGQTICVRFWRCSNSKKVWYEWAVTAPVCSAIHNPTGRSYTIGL
Sequence of PRMT5/MEP50 protein complex (Q9BQA1 whole entry partner): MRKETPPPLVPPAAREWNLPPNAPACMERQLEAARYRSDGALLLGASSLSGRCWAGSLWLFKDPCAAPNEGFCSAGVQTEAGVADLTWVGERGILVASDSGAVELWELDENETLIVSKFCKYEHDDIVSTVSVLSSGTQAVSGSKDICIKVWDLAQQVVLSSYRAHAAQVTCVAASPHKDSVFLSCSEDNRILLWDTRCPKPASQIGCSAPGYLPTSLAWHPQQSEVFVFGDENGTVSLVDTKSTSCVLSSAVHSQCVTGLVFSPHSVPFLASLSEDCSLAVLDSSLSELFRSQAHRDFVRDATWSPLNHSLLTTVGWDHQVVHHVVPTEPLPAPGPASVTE

IC50 [1] [nM] | IC50 [2] [nM] | SMILES
1 | 2 | Cc1ncnc2c1ccn2[C@@H]1C[C@H](Oc2cc(C(F)F)cc3c2CNCC3)[C@@H](O)[C@H]1O [Example 154, (1S,2S,3S,5R)-3-((6-(difluoromethyl)-1,2,3,4-tetrahydroisoquinolin-8-yl)oxy)-5-(4-methyl-7H-pyrrolo[2,3-d]pyrimidin-7-yl)cyclopentane-1,2-diol]
5 | 5200 | Cc1ncnc2c1ccn2[C@@H]1C[C@H](Oc2ccc(Cl)cc2CN)[C@@H](O)[C@H]1O [Example 159, (1S,2S,3S,5R)-3-(2-(aminomethyl)-4-chlorophenoxy)-5-(4-methyl-7H-pyrrolo[2,3-d]pyrimidin-7-yl)cyclopentane-1,2-diol]
4 | 3860 | Cc1ncnc2c1ccn2[C@@H]1C[C@H](Oc2cccc3c2CNCCO3)[C@@H](O)[C@H]1O [Example 164, (1S,2S,3R,5S)-3-(4-methyl-7H-pyrrolo[2,3-d]pyrimidin-7-yl)-5-((2,3,4,5-tetrahydrobenzo[f][1,4]oxazepin-6-yl)oxy)cyclopentane-1,2-diol]
3 | 39 | Cc1ncnc2c1ccn2[C@@H]1C[C@H](Oc2cc(-c3cn[nH]c3)c(F)c3c2CNCC3)[C@@H](O)[C@H]1O [Example 166, (1S,2S,3S,5R)-3-((5-fluoro-6-(1H-pyrazol-4-yl)-1,2,3,4-tetrahydroisoquinolin-8-yl)oxy)-5-(4-methyl-7H-pyrrolo[2,3-d]pyrimidin-7-yl)cyclopentane-1,2-diol]
3 | 159 | Nc1ncnc2c1ccn2[C@@H]1C[C@H](Oc2ccc(F)c3c2CNCC3)[C@@H](O)[C@H]1O [Example 180, (1S,2S,3R,5S)-3-(4-amino-7H-pyrrolo[2,3-d]pyrimidin-7-yl)-5-((5-fluoro-1,2,3,4-tetrahydroisoquinolin-8-yl)oxy)cyclopentane-1,2-diol]
1 | 1140 | Cc1cc2c(c(O[C@H]3C[C@@H](n4ccc5c(C)ncnc54)[C@H](O)[C@@H]3O)n1)CNCC2 [Example 181, (1S,2S,3S,5R)-3-((3-methyl-5,6,7,8-tetrahydro-2,7-naphthyridin-1-yl)oxy)-5-(4-methyl-7H-pyrrolo[2,3-d]pyrimidin-7-yl)cyclopentane-1,2-diol]
1 | 7020 | COc1nc(O[C@H]2C[C@@H](n3ccc4c(C)ncnc43)[C@H](O)[C@@H]2O)c2c(c1F)CCNC2 [Example 191, (1S,2S,3S,5R)-3-((4-fluoro-3-methoxy-5,6,7,8-tetrahydro-2,7-naphthyridin-1-yl)oxy)-5-(4-methyl-7H-pyrrolo[2,3-d]pyrimidin-7-yl)cyclopentane-1,2-diol]
1 | 22 | Nc1ncnc2c1c(F)cn2[C@@H]1C[C@H](Oc2cc(C(F)F)cc3c2CNCC3)[C@@H](O)[C@H]1O [Example 195, (1S,2S,3R,5S)-3-(4-amino-5-fluoro-7H-pyrrolo[2,3-d]pyrimidin-7-yl)-5-((6-(difluoromethyl)-1,2,3,4-tetrahydroisoquinolin-8-yl)oxy)cyclopentane-1,2-diol]
1 | 3 | Nc1ncnc2c1c(F)cn2[C@@H]1C[C@H](Oc2cc(C(F)F)c(F)c3c2CNCC3)[C@@H](O)[C@H]1O [Example 196, (1S,2S,3R,5S)-3-(4-amino-5-fluoro-7H-pyrrolo[2,3-d]pyrimidin-7-yl)-5-((6-(difluoromethyl)-5-fluoro-1,2,3,4-tetrahydroisoquinolin-8-yl)oxy)cyclopentane-1,2-diol]
1 | 3820 | COc1cc(O[C@H]2C[C@@H](n3ccc4c(C)ncnc43)[C@H](O)[C@@H]2O)c2c(c1F)CCNC2 [Example 198, (1S,2S,3S,5R)-3-((5-fluoro-6-methoxy-1,2,3,4-tetrahydroisoquinolin-8-yl)oxy)-5-(4-methyl-7H-pyrrolo[2,3-d]pyrimidin-7-yl)cyclopentane-1,2-diol]
1 | 677 | Cc1ncnc2c1ccn2[C@@H]1C[C@H](Oc2cc(F)cc3c2CNCCO3)[C@@H](O)[C@H]1O [Example 203, (1S,2S,3S,5R)-3-((8-fluoro-2,3,4,5-tetrahydrobenzo[f][1,4]oxazepin-6-yl)oxy)-5-(4-methyl-7H-pyrrolo[2,3-d]pyrimidin-7-yl)cyclopentane-1,2-diol]
2 | 720 | Cc1ncnc2c1ccn2[C@@H]1C[C@H](Oc2cc(Cl)cc3c2CNCCO3)[C@@H](O)[C@H]1O [Example 204, (1S,2S,3S,5R)-3-((8-chloro-2,3,4,5-tetrahydrobenzo[f][1,4]oxazepin-6-yl)oxy)-5-(4-methyl-7H-pyrrolo[2,3-d]pyrimidin-7-yl)cyclopentane-1,2-diol]

Continued, molecule first:

SMILES | IC50 [1] [nM] | IC50 [2] [nM]
Cc1ncnc2c1ccn2[C@@H]1C[C@H](Oc2cc(F)c(F)cc2CN)[C@@H](O)[C@H]1O [Example 148, (1S,2S,3S,5R)-3-(2-(aminomethyl)-4,5-difluorophenoxy)-5-(4-methyl-7H-pyrrolo[2,3-d]pyrimidin-7-yl)cyclopentane-1,2-diol] | 2 | 4880
Cc1ncnc2c1ccn2[C@@H]1C[C@H]([C@H](O)c2ccc(Cl)c(F)c2)[C@@H](O)[C@H]1O [Example 160, (1S,2R,3R,5R)-3-((S)-(4-chloro-3-fluorophenyl)(hydroxy)methyl)-5-(4-methyl-7H-pyrrolo[2,3-d]pyrimidin-7-yl)cyclopentane-1,2-diol] | 9 | 405
Cc1ncnc2c1ccn2[C@@H]1C[C@H](Oc2cc(-c3cn[nH]c3)cc3c2CNCC3)[C@@H](O)[C@H]1O [Example 165, (1S,2S,3S,5R)-3-((6-(1H-pyrazol-4-yl)-1,2,3,4-tetrahydroisoquinolin-8-yl)oxy)-5-(4-methyl-7H-pyrrolo[2,3-d]pyrimidin-7-yl)cyclopentane-1,2-diol] | 2 | 766
Cc1cc2cccc(O[C@H]3C[C@@H](n4ccc5c(C)ncnc54)[C@H](O)[C@@H]3O)c2cn1 [Example 169, (1S,2S,3R,5S)-3-(4-methyl-7H-pyrrolo[2,3-d]pyrimidin-7-yl)-5-((3-methylisoquinolin-8-yl)oxy)cyclopentane-1,2-diol] | 37 | 743
Cc1ncc2c(F)cn([C@@H]3C[C@H](Oc4cc(C#N)cc5c4CNCC5)[C@@H](O)[C@H]3O)c2n1 [Example 173, 8-(((1S,2S,3S,4R)-4-(5-fluoro-2-methyl-7H-pyrrolo[2,3-d]pyrimidin-7-yl)-2,3-dihydroxycyclopentyl)oxy)-1,2,3,4-tetrahydroisoquinoline-6-carbonitrile] | 3 | 3570
Cc1ncc2c(F)cn([C@@H]3C[C@H](Oc4cc(Cl)cc5c4CNCC5)[C@@H](O)[C@H]3O)c2n1 [Example 175, (1S,2S,3S,5R)-3-((6-chloro-1,2,3,4-tetrahydroisoquinolin-8-yl)oxy)-5-(5-fluoro-2-methyl-7H-pyrrolo[2,3-d]pyrimidin-7-yl)cyclopentane-1,2-diol] | 5 | 3230
Cc1ncnc2c1c(F)cn2[C@@H]1C[C@H](Oc2cc(Cl)cc3c2CNCC3)[C@@H](O)[C@H]1O [Example 176, (1S,2S,3S,5R)-3-((6-chloro-1,2,3,4-tetrahydroisoquinolin-8-yl)oxy)-5-(5-fluoro-4-methyl-7H-pyrrolo[2,3-d]pyrimidin-7-yl)cyclopentane-1,2-diol] | 2 | 1560
Cc1ncnc2c1c(F)cn2[C@@H]1C[C@H](Oc2cc(F)c(F)c3c2CNCC3)[C@@H](O)[C@H]1O [Example 177, (1S,2S,3S,5R)-3-((5,6-difluoro-1,2,3,4-tetrahydroisoquinolin-8-yl)oxy)-5-(5-fluoro-4-methyl-7H-pyrrolo[2,3-d]pyrimidin-7-yl)cyclopentane-1,2-diol] | 4 | 2370
Cc1ncc2c(F)cn([C@@H]3C[C@H](Oc4cc(F)c(F)c5c4CNCC5)[C@@H](O)[C@H]3O)c2n1 [Example 178, (1S,2S,3S,5R)-3-((5,6-difluoro-1,2,3,4-tetrahydroisoquinolin-8-yl)oxy)-5-(5-fluoro-2-methyl-7H-pyrrolo[2,3-d]pyrimidin-7-yl)cyclopentane-1,2-diol] | 2 | 4060
Cc1ncnc2c1ccn2[C@@H]1C[C@H](Oc2nc(C(F)F)cc3c2CNCC3)[C@@H](O)[C@H]1O [Example 194, (1S,2S,3S,5R)-3-((3-(difluoromethyl)-5,6,7,8-tetrahydro-2,7-naphthyridin-1-yl)oxy)-5-(4-methyl-7H-pyrrolo[2,3-d]pyrimidin-7-yl)cyclopentane-1,2-diol] | 1 | 111
Cc1ncnc2c1ccn2[C@@H]1C[C@H](Oc2cc(-c3cnoc3)cc3c2CNCC3)[C@@H](O)[C@H]1O [Example 197, (1S,2S,3S,5R)-3-((6-(isoxazol-4-yl)-1,2,3,4-tetrahydroisoquinolin-8-yl)oxy)-5-(4-methyl-7H-pyrrolo[2,3-d]pyrimidin-7-yl)cyclopentane-1,2-diol] | 1 | 3460
Cc1ncnc2c1ccn2[C@@H]1C[C@H](Oc2cc(C#N)cc3c2CNCCO3)[C@@H](O)[C@H]1O [Example 202, 6-(((1S,2S,3S,4R)-2,3-dihydroxy-4-(4-methyl-7H-pyrrolo[2,3-d]pyrimidin-7-yl)cyclopentyl)oxy)-2,3,4,5-tetrahydrobenzo[f][1,4]oxazepine-8-carbonitrile] | 1 | 1760
Cc1ncnc2c1ccn2[C@@H]1C[C@H](Oc2cccc3c2CN[C@@H](C)CO3)[C@@H](O)[C@H]1O [Example 207, (1S,2S,3S,5R)-3-(((S)-3-methyl-2,3,4,5-tetrahydrobenzo[f][1,4]oxazepin-6-yl)oxy)-5-(4-methyl-7H-pyrrolo[2,3-d]pyrimidin-7-yl)cyclopentane-1,2-diol] | 24 | 1480

From patent US10709709B2, “Substituted carbonucleoside derivatives useful as anticancer agents” (Pfizer Inc., priority 2016, dated 2020)
